Results as given in patent US11773084B1, “4-arylamino-2-(6-indolylamino)pyrimidine compounds as antibacterial agents” (KING FAISAL UNIVERSITY, priority 2023, dated 2023).
Converted amounts (≈) assume the structure as drawn. Read-outs that look alike come from different tables or passages of the source.

Tests used:
[1] = test system: Staphylococcus aureus ATCC 29213; assay: In vitro antibacterial activity (CLSI M07-A10 dilution MIC); type: cell-based; conditions: ATCC29213
[2] = test system: Staphylococcus aureus ATCC BAA-1556 (MERSA resistant); assay: as above; type: cell-based; conditions: ATCCBAA1556
[3] = test system: Staphylococcus epidermidis; assay: as above; type: cell-based
[4] = test system: Bacillus subtilis MTCC 441; assay: as above; type: cell-based; conditions: MTCC441
[5] = test system: Enterococcus faecium ATCC 35667; assay: as above; type: cell-based; conditions: ATCC35667
[6] = test system: Enterococcus faecium ATCC 51559 (VRE resistant); assay: as above; type: cell-based
[7] = test system: Klebsiella pneumonia MTCC 618; assay: as above; type: cell-based; conditions: Klebsiella pneumoniae, MTCC618
[8] = test system: Escherichia coli MTCC 443; assay: as above; type: cell-based
[9] = test system: Mycobacterium tuberculosis H37Rv strain; assay: Anti-tubercular alamar blue microplate MIC assay; type: cell-based; conditions: seven days 37° C.
DNA gyrase from E. coli = biological target: T1, DNA gyrase from E. coli (Escherichia coli, UniProt P0AES4+P0AES6); assay: E. coli DNA gyrase inhibition (Inspiralis assay); type: biochemical
T1 construct: purchased Inspiralis
T1 sequence (P0AES4 whole entry, one chain of several): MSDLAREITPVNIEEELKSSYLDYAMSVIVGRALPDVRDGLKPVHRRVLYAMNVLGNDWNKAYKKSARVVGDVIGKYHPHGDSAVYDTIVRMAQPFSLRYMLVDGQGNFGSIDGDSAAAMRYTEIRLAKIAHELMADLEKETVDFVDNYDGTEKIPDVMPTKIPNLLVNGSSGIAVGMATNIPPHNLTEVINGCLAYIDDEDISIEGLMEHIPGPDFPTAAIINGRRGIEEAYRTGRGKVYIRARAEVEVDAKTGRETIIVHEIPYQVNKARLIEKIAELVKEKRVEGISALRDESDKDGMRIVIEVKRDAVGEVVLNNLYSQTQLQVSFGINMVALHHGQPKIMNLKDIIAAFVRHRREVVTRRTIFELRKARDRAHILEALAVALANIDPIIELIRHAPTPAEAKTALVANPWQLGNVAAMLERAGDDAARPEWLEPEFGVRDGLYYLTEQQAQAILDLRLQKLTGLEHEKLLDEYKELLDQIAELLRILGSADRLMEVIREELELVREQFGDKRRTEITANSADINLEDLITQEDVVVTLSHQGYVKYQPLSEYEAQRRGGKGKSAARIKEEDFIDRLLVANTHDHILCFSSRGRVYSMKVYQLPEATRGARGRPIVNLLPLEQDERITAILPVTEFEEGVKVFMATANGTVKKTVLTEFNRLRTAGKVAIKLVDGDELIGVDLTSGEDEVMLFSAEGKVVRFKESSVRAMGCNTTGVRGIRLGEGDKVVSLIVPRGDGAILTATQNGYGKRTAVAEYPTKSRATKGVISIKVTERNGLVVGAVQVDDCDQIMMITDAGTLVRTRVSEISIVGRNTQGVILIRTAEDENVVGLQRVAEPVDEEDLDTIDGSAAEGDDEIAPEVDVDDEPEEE
Method: First, the plates were rehydrated with buffer (20 mM Tris-HCl with pH 7.6, 0.01% w/v BSA, 0.05% v/v Tween 20, 137 mM NaCl) and the biotinylated oligonucleotide was then immobilized. After washing off the unbound oligonucleotide, the enzyme test was performed. […] Reaction solutions were incubated at 37° C. for 30 min. After that, the TF buffer (50 mM NaOAc with pH 5.0, 50 mM NaCl and 50 mM MgCl2) was added to terminate the enzymatic reaction. After additional incubation for 30 min at rt, during which biotinoligonucleotide-plasmid triplex was formed, the unbound plasmid was washed off using TF buffer and SybrGOLD in T10 buffer (10 mM Tris HCl with pH 8.0 and 1 mM EDTA) was added. The fluorescence was measured with a microplate reader (BioTek Synergy H4, excitation: 485 nm, emission: 535 nm). […] GraphPad Prism software was used to calculate the IC50 values. The result is given as the average value of three independent measurements.

[10] = Escherichia coli MTCC 443 + PABN

CCCCCN(C)Cc1cc(C(=O)O)ccc1Nc1ccnc(Nc2ccc3cc(C)[nH]c3c2)n1 [Example 8, 3-((methyl(pentyl)amino)methyl)-4-((2-((2-methyl-1H-indol-6-yl)amino)pyrimidin-4-yl)amino)benzoic acid]
MIC ([1]; Staphylococcus aureus ATCC 29213, read-out: MIC): 4 µg/mL (≈ 8.46 µM) | MIC ([2]; Staphylococcus aureus ATCC BAA-1556 (MERSA resistant), read-out: MIC): 4 µg/mL (≈ 8.46 µM) | MIC ([3]; read-out: MIC): 8 µg/mL (≈ 16.9 µM) | MIC ([4]; Bacillus subtilis MTCC 441, read-out: MIC): 2 µg/mL (≈ 4.23 µM) | MIC ([5]; Enterococcus faecium ATCC 35667, read-out: MIC): 2 µg/mL (≈ 4.23 µM) | MIC ([6]; Enterococcus faecium ATCC 51559 (VRE resistant), read-out: MIC): 4 µg/mL (≈ 8.46 µM) | MIC ([7]; Klebsiella pneumonia MTCC 618, read-out: MIC): 2 µg/mL (≈ 4.23 µM) | MIC [8, 10]: 2 µg/mL | MIC ([8]; MTCC443, Escherichia coli MTCC 443, read-out: MIC): 32 µg/mL (≈ 67.7 µM) | anti-mycobacterial activity (MIC) [9]: 8 micro-g/mL | IC50 (DNA gyrase from E. coli): 315 nM

CN[C@H](CC(C)C)C(=O)N[C@H]1C(=O)N[C@@H](CC(N)=O)C(=O)N[C@H]2C(=O)N[C@H]3C(=O)N[C@H](C(=O)N[C@H](C(=O)O)c4cc(O)cc(O)c4-c4cc3ccc4O)[C@H](O)c3ccc(c(Cl)c3)Oc3cc2cc(c3O[C@@H]2O[C@H](CO)[C@@H](O)[C@H](O)[C@H]2O[C@H]2C[C@](C)(N)[C@H](O)[C@H](C)O2)Oc2ccc(cc2Cl)[C@H]1O [Vancomycin, reference compound]
MIC ([1]; Staphylococcus aureus): 1 µg/mL (≈ 0.69 µM) | MIC ([2]; Staphylococcus aureus): 1 µg/mL (≈ 0.69 µM) | MIC [3]: 1 µg/mL (≈ 0.69 µM) | MIC ([4]; Bacillus subtilis): 0.5 µg/mL (≈ 0.345 µM) | MIC ([5]; Enterococcus faecium): 0.5 µg/mL (≈ 0.345 µM) | MIC ([6]; Enterococcus faecium): > 128 µg/mL | MIC [7]: > 128 µg/mL | MIC [8, 10]: >128 µg/mL | MIC ([8]; Escherichia coli, MTCC443): > 128 µg/mL
